This note sets out measurements from patent US20070244165A1, “Method for Identifying and Producing Effectors of Calmodulin-Dependent Peptidyl-Prolyl Cis/Trans Isomers” (MAX-PLANK-GESELLSCHAFT ZUR FORDERUNG, priority 2004, published 2007).

The target in this test is T1, human CaMAP FKBP38 (Homo sapiens, UniProt Q14318).
T1 construct: made in house; host or cells: E. coli Rosetta cells (pET28a)
As to the kind of experiment: Inhibition of PPIase activity of calmodulin-activated CaMAP FKBP38 (isomer-specific proteolysis with chymotrypsin). The conditions noted are these: 0.5 μM FKBP38, 0.5 μM calmodulin, 5 mM calcium chloride; substrate Suc-Ala-Phe-Pro-Phe-NHNp; read-out: IC50 value (inhibitor concentration against detected enzyme activity). It is filed as biochemical. The protocol:
The human CaMAP FKBP38 (synonyms: FKBP8_HUMAN; Swiss-Prot-No.: Q14318) was produced molecular-biologically, as described in Example 9, and stored in aliquots of 100 μl with a protein concentration of 0.83 mg/ml at −80° C. Just before measuring the activity, one of these aliquots was thawed and subsequently stored at 4° C. Furthermore, commercially available calmodulin isolated from bovine brain (Sigma; purchase order no.: P2277), which had been stored at −80° C., was thawed just before measuring the activity and stored at 4° C. Suc-Ala-Phe-Pro-Phe-pNA (Bachem; purchase order no.: L-1400) was used as CaMAP substrate. Alpha-chymotrypsin isolated from bovine pancreas (Merck KG; purchase order no.: 102307) was used as isomer specific auxiliary enzyme. The following working solutions were prepared just before measuring and stored at 4° C.: • solution A: 55 mM HEPES buffer, pH 7.8; 1 mM DTT, 0.5% glycerol • solution B: 20 mg of the peptide substrate dissolved in 1 ml DMSO • solution C: 20 mg chymotrypsin dissolved in 200 μl of solution A • solution D: FKBP38 ([…], diluted in solution A) • solution E: calmodulin (300 μM, diluted in solution A) • solution F: calcium chloride (1 M in solution A)
For the kinetic determination of CaMAP activity, a computer assisted diode-array spectrometer (Hewlett Packard) with a cuvette temperature of 4° C. is used. […]

Molecules are shown by their SMILES.

Take `C=CC[C@@H]1/C=C(\C)C[C@H](C)C[C@H](OC)[C@H]2O[C@@](O)(C(=O)C(=O)N3CCCC[C@H]3C(=O)O[C@H](/C(C)=C/[C@@H]3CC[C@@H](O)[C@H](OC)C3)[C@H](C)[C@@H](O)CC1=O)[C@H](C)C[C@@H]2OC` [FK506]: the IC50 is around 4.3 µM.
